According to US8821836B2, “SPARC binding peptides and uses thereof” (Abraxis BioScience, LLC, priority 2008, dated 2014):
Entries after “also recorded” stand apart in the source; their conditions may differ.

What was measured:
SPARC = target: T1, SPARC (Homo sapiens, UniProt P09486); test: Concentration dependent binding ELISA; details: for binding to SPARC compared with anti-SPARC antibody: ELISA, FIG. 9
T1 sequence (P09486 18-303): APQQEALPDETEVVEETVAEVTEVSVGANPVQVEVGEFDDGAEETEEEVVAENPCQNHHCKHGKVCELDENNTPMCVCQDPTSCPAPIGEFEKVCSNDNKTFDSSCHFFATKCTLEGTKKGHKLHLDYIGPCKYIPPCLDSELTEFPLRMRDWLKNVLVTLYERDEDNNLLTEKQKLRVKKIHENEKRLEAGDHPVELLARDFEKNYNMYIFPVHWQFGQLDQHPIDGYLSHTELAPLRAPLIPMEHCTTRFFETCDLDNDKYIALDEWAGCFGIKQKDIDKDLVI

[1] = system: non-SPARC proteins in 5,000 proteins on the array; test: Protein microarray analysis (Invitrogen ProtoArray v.3), off target binding
Excerpt: FIG. 8 depicts the Protoarray used to define off target binding of PD 15 and PD21.

HT29 colon xenograft = test: Antitumor activity in HT29 xenograft model; format: in vivo, mouse; details: FIG. 14
[2] = system: sections of a human brain tumor (SPARC expressing tumor); test: Immunohistochemical staining of tumor sections; details: IHC, FIGS. 10 and 11
Excerpt: FIGS. 10 and 11 show the co-localization of SPARC (as indicated by immunohistochemical (IHC) staining with an anti-SPARC antibody) and the binding of PD 15 and PD 21 in sections of a human brain tumor (which have been epitope tagged for IHC staining.).

[3] = system: PC3 prostatecarcinoma xenograft; test: Antitumor activity in PC3 xenograft model; format: in vivo, nude mouse; details: for tumor growth inhibition: FIG. 13
Method: FIG. 13 depicts the antitumor activity of PD 15 and PD 21 in a human prostate cancer/nude mouse model system.
The PD 15 and PD 21-Fc fusion proteins were assayed for antitumor activity in a murine-human PC3 prostatecarcinoma xenograft model.

VTPLLKFRALSS [PD 21]
binding to SPARC compared with anti-SPARC antibody (SPARC): only slightly weaker than that of an anti-SPARC antibody | cross reactivity with non-SPARC proteins [1]: only minimal cross reactivity | antitumor activity, comparison (HT29 colon xenograft): better antitumor activity than PD 15; also recorded: activity closely equivalent to Abraxane | binding to / staining of tumor tissue [2]: binding

YTRLHHWIPPQR [PD 15]
affinity for SPARC, PD 15 versus PD 21 (SPARC; ELISA and IHC experiments): higher affinity for SPARC than PD 21 | binding to SPARC compared with anti-SPARC antibody (SPARC): only slightly weaker than that of an anti-SPARC antibody | cross reactivity with non-SPARC proteins [1]: only minimal cross reactivity | antitumor activity, comparison [3]: better antitumor activity than PD21 | binding to / staining of tumor tissue [2]: binding

PD 15-Fc: fusion protein of SPARC binding peptide PD 15 with human IgG1 Fc domain (pFUSE-hIgG1-Fc2 vector) (YTRLHHWIPPQR)
tumor growth inhibition [3]: statistically significant tumor growth inhibition

PD 21-Fc: fusion protein of SPARC binding peptide PD 21 with human IgG1 Fc domain (pFUSE-hIgG1-Fc2 vector) (VTPLLKFRALSS)
tumor growth inhibition [3]: statistically significant tumor growth inhibition
